Structures are written as SMILES.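 Step 1: Grow cells in 96-well plates. Step 2: Expose to compound for 48 hours at 5 concentrations. Step 3: Interpolate endpoints linearly; if unreached, use highest concentration. GI50 marks 50% less growth.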 Active and inactive are the calls of the source. Cut-off read from the data, not from the text of the source: active = GI50 up to about 1.1 µM and inactive = higher. Bounds are passed on as bounds.

Data on eleven compounds can be found in ChEMBL document CHEMBL1201862, “PubChem BioAssay data set” (2004).

Some test systems named below: LOX IMVI; Malme-3M; OVCAR-5; SNB-75; OVCAR-4; KM-20L2; UACC-62; NCI-H460; NCI/ADR-RES; NCI-H23; RXF 393; UACC-257; OVCAR-3; HCC 2998; CCRF-CEM; HOP-62; HCT-116; UO-31; TK-10; DU-145.
Experiment in all cases: inhibition of tumour cell growth, NCI panel, 48 h

`Cc1c2cnccc2c(C)c2c1c1ccccc1n2CCOC(=O)c1ccccc1`: the GI50 in the test on LOX IMVI is 8.38 µM (inactive); in the test with Malme-3M, 11.5 µM (inactive); in the test with OVCAR-5 it was 14.4 µM (inactive); with SNB-75 it was 22.9 µM (inactive); in the test with OVCAR-4, 16.5 µM (inactive); in the test on KM-20L2 it was 6.44 µM (inactive). Further, the GI50 in the test on UACC-62 was 11.9 µM (inactive); in the test on NCI-H460 it was 3.45 µM (inactive); in the test with NCI/ADR-RES, 8.49 µM (inactive); in the test with NCI-H23, 15.7 µM (inactive); with RXF 393, 9.75 µM (inactive); in the test on UACC-257, 12.4 µM (inactive). Besides, the GI50 is 12.2 µM (inactive) with OVCAR-3; 10.7 µM (inactive) in the test on HCC 2998; 7.52 µM (inactive) in the test on CCRF-CEM; 13.2 µM (inactive) with HOP-62; 5.41 µM (inactive) in the test on HCT-116; 3.1 µM (inactive) in the test on UO-31. Further, the GI50 in the test on TK-10 was 11.2 µM (inactive); with DU-145, 25.6 µM (inactive).

In the case of `Cn1cnc([N+](=O)[O-])c1Sc1nnc(-c2cccnc2)n1C`, the GI50 was 17.8 µM (inactive) in the test with LOX IMVI; 15.5 µM (inactive) in the test on Malme-3M; 67.3 µM (inactive) in the test on OVCAR-5; 58.7 µM (inactive) in the test with SNB-75; 22.2 µM (inactive) in the test with OVCAR-4; 33.9 µM (inactive) with KM-20L2. The GI50 in the test with UACC-62 was 17.3 µM (inactive); in the test with NCI-H460, > 85.1 µM (inactive); in the test on NCI/ADR-RES, 46.6 µM (inactive); in the test on NCI-H23, 23.1 µM (inactive); with RXF 393, 7.83 µM (inactive); with UACC-257 it was 13.9 µM (inactive). In addition, the GI50 in the test on OVCAR-3 is 17.2 µM (inactive); in the test with HCC 2998 it was 30.9 µM (inactive); in the test on CCRF-CEM, 15.5 µM (inactive); in the test on HOP-62 it was > 91.6 µM (inactive); in the test on HCT-116, 18.4 µM (inactive); in the test on UO-31 it was 32.4 µM (inactive). For the same compound, the GI50 is 16.8 µM (inactive) with TK-10 and 36.4 µM (inactive) in the test on DU-145.

Turning to `Cc1nc2ccncc2[nH]1`, the GI50 was > 100 µM (inactive) in the test with LOX IMVI; > 100 µM (inactive) with Malme-3M; > 100 µM (inactive) in the test on OVCAR-5; 24.8 µM (inactive) with SNB-75; > 100 µM (inactive) in the test on OVCAR-4; > 100 µM (inactive) in the test on KM-20L2. Further, the GI50 in the test on UACC-62, in the test on NCI-H460, in the test with NCI-H23, in the test on RXF 393, with UACC-257 and with OVCAR-3 was > 100 µM (inactive) throughout. In addition, the GI50 in the test on HCC 2998, in the test on CCRF-CEM, in the test with HOP-62, in the test with HCT-116, in the test with UO-31 and in the test with TK-10 was > 100 µM (inactive) in each case.

Regarding `CSc1nc2c(nc(C)c(=O)n2C2OCC(OC(C)=O)C(OC(C)=O)C2OC(C)=O)c(=O)[nH]1` (centres undefined), the GI50 in the test with LOX IMVI, in the test with Malme-3M, in the test with OVCAR-5, in the test on SNB-75, in the test on OVCAR-4 and in the test with KM-20L2 was > 100 µM (inactive) throughout. In addition, the GI50 with UACC-62, in the test with NCI-H460, in the test with NCI-H23, with RXF 393, with UACC-257 and in the test with OVCAR-3 was > 100 µM (inactive) in each case. The GI50 in the test with HCC 2998, in the test with CCRF-CEM, in the test with HOP-62, in the test with HCT-116, in the test on UO-31 and in the test with TK-10 was > 100 µM (inactive) throughout.

As for `CCN(CC)c1ccc2cc3ccc(N(CC)CC)cc3[o+]c2c1`, the GI50 is 0.6 µM (active) with LOX IMVI; 1.2 µM (inactive) in the test with Malme-3M; 6.82 µM (inactive) with OVCAR-5; 5.37 µM (inactive) with SNB-75; 11.1 µM (inactive) in the test with OVCAR-4; 1.82 µM (inactive) in the test on KM-20L2. The GI50 in the test on UACC-62 is 1.71 µM (inactive); with NCI-H460, 1.78 µM (inactive); in the test with NCI-H23, 0.946 µM (active); in the test on RXF 393, 2.36 µM (inactive); in the test on UACC-257, 2.59 µM (inactive); in the test on OVCAR-3, 0.8 µM (active). For the same compound, the GI50 was 4.39 µM (inactive) in the test on HCC 2998; 0.0419 µM (active) in the test on CCRF-CEM; 3.31 µM (inactive) with HOP-62; 0.29 µM (active) in the test on HCT-116; 2.28 µM (inactive) with UO-31; 6.08 µM (inactive) in the test on TK-10.

On to `Cc1nc(C(N)=S)sc1C(=O)CC(=O)C(=O)Nc1ccccc1[N+](=O)[O-]`, for which the GI50 in the test on LOX IMVI, in the test with Malme-3M, in the test with OVCAR-5, in the test with SNB-75, in the test with OVCAR-4 and with KM-20L2 was > 100 µM (inactive) each time. Further, the GI50 in the test on UACC-62, in the test with NCI-H460, with NCI-H23, with RXF 393, with UACC-257 and in the test on OVCAR-3 was > 100 µM (inactive) throughout. Further, the GI50 in the test with HCC 2998, in the test with CCRF-CEM, with HOP-62, with HCT-116, with UO-31 and in the test on TK-10 was > 100 µM (inactive) each time.

`O=C(Cc1ccccc1)NN1C(=O)C(Cl)C1c1ccc([N+](=O)[O-])cc1` (centres undefined): the GI50 in the test on LOX IMVI is 87.5 µM (inactive); with Malme-3M it was > 100 µM (inactive); in the test with OVCAR-5 it was > 100 µM (inactive); in the test with SNB-75, 93.8 µM (inactive); in the test on OVCAR-4, 55.6 µM (inactive); in the test with KM-20L2, > 100 µM (inactive). Also, the GI50 with UACC-62 is > 100 µM (inactive); in the test with NCI-H460, > 100 µM (inactive); in the test on NCI-H23, 53.5 µM (inactive); with RXF 393, 84.9 µM (inactive); in the test on UACC-257 it was 76.4 µM (inactive); with OVCAR-3, > 100 µM (inactive). Besides, the GI50 is > 100 µM (inactive) in the test on HCC 2998; > 10 µM (inactive) with CCRF-CEM; > 100 µM (inactive) in the test on HOP-62; > 100 µM (inactive) in the test with HCT-116; > 100 µM (inactive) with UO-31; > 100 µM (inactive) in the test with TK-10.

With `CN1c2ccccc2N(C)C2C1N(C)c1ccccc1N2C` (centres undefined), the GI50 with LOX IMVI is 5.25 µM (inactive); in the test with Malme-3M it was 16.6 µM (inactive); with OVCAR-5, 59.3 µM (inactive); in the test on SNB-75 it was 6.9 µM (inactive); with OVCAR-4 it was 26 µM (inactive); in the test with KM-20L2, 15.7 µM (inactive). Besides, the GI50 in the test on UACC-62 is 5.15 µM (inactive); in the test with NCI-H460, 20.8 µM (inactive); with NCI-H23 it was 16.8 µM (inactive); in the test on RXF 393, 11.1 µM (inactive); in the test with UACC-257, 6.67 µM (inactive); in the test with OVCAR-3 it was 8.71 µM (inactive). The GI50 in the test with HCC 2998 is 9.73 µM (inactive); in the test on CCRF-CEM, 2.81 µM (inactive); in the test on HOP-62, 34.3 µM (inactive); in the test on HCT-116 it was 12.7 µM (inactive); in the test on UO-31, 31.6 µM (inactive); with TK-10, 36.9 µM (inactive).

As to `COC(=O)c1ccc(CS(=O)(=O)c2ccccc2)cc1`, the GI50 in the test on LOX IMVI is 74.3 µM (inactive); in the test on Malme-3M, > 100 µM (inactive); with OVCAR-5, > 100 µM (inactive); in the test with SNB-75, 48.3 µM (inactive); with OVCAR-4 it was > 100 µM (inactive); in the test with KM-20L2, 61.5 µM (inactive). Besides, the GI50 in the test on UACC-62 was 99.8 µM (inactive); with NCI-H460, 66.1 µM (inactive); with NCI-H23, > 100 µM (inactive); in the test with RXF 393, > 100 µM (inactive); with UACC-257, > 100 µM (inactive); in the test on OVCAR-3, > 100 µM (inactive). Moreover, the GI50 is > 100 µM (inactive) in the test with HCC 2998; > 100 µM (inactive) with CCRF-CEM; > 100 µM (inactive) with HOP-62; 60.3 µM (inactive) in the test with HCT-116; > 100 µM (inactive) in the test on UO-31; > 100 µM (inactive) in the test with TK-10.

For `CCC(=O)OCOc1ccc(/C=C2\CCC(CN(C)C)C2=O)cc1` (centres undefined), the GI50 in the test on LOX IMVI is 1.94 µM (inactive); in the test on Malme-3M, 3.96 µM (inactive); in the test with OVCAR-5, 16.8 µM (inactive); in the test on SNB-75, 12.8 µM (inactive); with OVCAR-4 it was 4.09 µM (inactive); in the test on KM-20L2, 13.1 µM (inactive). For the same compound, the GI50 with UACC-62 is 4.1 µM (inactive); in the test on NCI-H460 it was 15.9 µM (inactive); in the test with NCI/ADR-RES, 2.96 µM (inactive); in the test on NCI-H23, 5.42 µM (inactive); with RXF 393, 3.44 µM (inactive); with UACC-257 it was 3.39 µM (inactive). Further, the GI50 in the test with OVCAR-3 is 3.7 µM (inactive); in the test on HCC 2998, 5.96 µM (inactive); with CCRF-CEM it was 1.61 µM (inactive); in the test on HOP-62, 15.2 µM (inactive); with HCT-116, 2.74 µM (inactive); with UO-31, 7.8 µM (inactive). The GI50 in the test with TK-10 is 9.12 µM (inactive); in the test on DU-145, 10.8 µM (inactive).

For the compound `COc1cc2c(cc1O)[C@H](C)C(c1ccc(Cl)cc1)O2` (some centres undefined), the GI50 is 16 µM (inactive) in the test on LOX IMVI; 24.6 µM (inactive) with Malme-3M; 25.4 µM (inactive) with OVCAR-5; 2.72 µM (inactive) in the test with SNB-75; 32.1 µM (inactive) with OVCAR-4; 23.1 µM (inactive) in the test with KM-20L2. For the same compound, the GI50 with UACC-62 is 21.2 µM (inactive); with NCI-H460, 17.9 µM (inactive); in the test with NCI-H23, 21 µM (inactive); in the test on RXF 393, 24.6 µM (inactive); in the test with UACC-257, 19.8 µM (inactive); in the test with OVCAR-3 it was 37.4 µM (inactive). Moreover, the GI50 is 18.5 µM (inactive) in the test on HCC 2998; 14.5 µM (inactive) in the test on CCRF-CEM; 22.6 µM (inactive) in the test on HOP-62; 16.1 µM (inactive) in the test on HCT-116; 24.4 µM (inactive) in the test with UO-31; 24.4 µM (inactive) with TK-10.
